Biological target: T1, human Cystic Fibrosis Transmembrane Conductance Regulator (CFTR) harboring the ΔF508 mutation (Homo sapiens, UniProt P13569, DEL508-508)
T1 construct: expressed in transfected cells; host or cells: H441 carcinoma line (G418-selected)
Experiment: H441 cell ΔF508-CFTR-HRP cell surface assay (Emax and EC50)
Type: cell-based
Conditions: for Emax: NCI-H441, NA = Not active
Excerpt: Example 315: H441 Cell Emax and EC50 Two cell lines were used, the H441 carcinoma line and the CFHBE41o- (41o-) human bronchial epithelial line. Both cell lines expressed human Cystic Fibrosis Transmembrane Conductance Regulator (CFTR) harboring the ΔF508 mutation and with an in-frame fusion in CFTR extracellular loop 4 of Horse Radish Peroxidase (HRP) under control of the CMV promoter. In the presence of the HRP tag, ΔF508-CFTR transported to the cell surface was detectable upon addition of an HRP substrate (Luminata Forte). Both cell types were cultivated at 37° C. with CO2. […] For both cell types, the medium was changed every other day unless the culture was at low % confluence. Cells were used for the assays at 75% confluence. To a polypropylene (PP) 384-well plate, 15 pls DMSO was added to all wells in columns 1-22 and 24 (low Control). 15 μls of 260 μM VX809 (Lumacaftor), Selleckchem […], was added to column 23 wells (high Control). 15 pls of 10 mM test compound or VX809 (control) were added to wells of row A. Serial dilutions of Row A compound were performed 2×15 pls in rows A through 0 (15-point). A PP, 384-well plate containing the appropriate cell culture medium was prepared for each assay plate with 100 pls per well. For the doxycycline-induced 41o-cells, doxycycline for both the assay plate and the medium dilution plate was added at 0.0005 mg/ml to the medium. Both cell lines were plated for the assay at 30 pls per 384-well at 3.4×10 e^5 cells per ml ( 10K cells/well). H441 cells were plated on opaque, white, Corning plate 3704. 41o-cells were plated on collagen-coated opaque, white, Corning plate 356665. For 41o-cells, doxycycline was added to the medium. Using FX (Beckman) protocol, 10 pls diluted compound or medium was added per well to the Assay Plate as: 2 pls DMSO Dilution plate well was diluted in 100 pls of the Medium Dilution Plate well, mixed, and 10 pls was transferred to the Assay Plate. The final assay dilution series was 24.5, 12.3, 6.1, 3.1, 1.5, 0.8, 0.4, 0.2, 0.1, 0.05, 0.02, 0.01, 0.006, 0.003, 0.001 and 0 μM. The 41o-assay plates were incubated at 37° C. w/CO2, the H441 assay plates were incubated at 27° C. w/CO2, each overnight for two nights. After being brought to room temperature, the assay plate liquid was removed. 30 uls of Luminata Forte (Millipore ELLUF0100) was added per well and incubated at room temperature for 10 min. The plates were then read on a Topcount, protocol LumiMatti (CPS, luminescence). The data was analyzed for % of maximum, maximum VX809 signal, and EC50 using Pearl and SPEED tools.

T1 sequence (P13569 with tags, fused parts or gaps DEL508-508): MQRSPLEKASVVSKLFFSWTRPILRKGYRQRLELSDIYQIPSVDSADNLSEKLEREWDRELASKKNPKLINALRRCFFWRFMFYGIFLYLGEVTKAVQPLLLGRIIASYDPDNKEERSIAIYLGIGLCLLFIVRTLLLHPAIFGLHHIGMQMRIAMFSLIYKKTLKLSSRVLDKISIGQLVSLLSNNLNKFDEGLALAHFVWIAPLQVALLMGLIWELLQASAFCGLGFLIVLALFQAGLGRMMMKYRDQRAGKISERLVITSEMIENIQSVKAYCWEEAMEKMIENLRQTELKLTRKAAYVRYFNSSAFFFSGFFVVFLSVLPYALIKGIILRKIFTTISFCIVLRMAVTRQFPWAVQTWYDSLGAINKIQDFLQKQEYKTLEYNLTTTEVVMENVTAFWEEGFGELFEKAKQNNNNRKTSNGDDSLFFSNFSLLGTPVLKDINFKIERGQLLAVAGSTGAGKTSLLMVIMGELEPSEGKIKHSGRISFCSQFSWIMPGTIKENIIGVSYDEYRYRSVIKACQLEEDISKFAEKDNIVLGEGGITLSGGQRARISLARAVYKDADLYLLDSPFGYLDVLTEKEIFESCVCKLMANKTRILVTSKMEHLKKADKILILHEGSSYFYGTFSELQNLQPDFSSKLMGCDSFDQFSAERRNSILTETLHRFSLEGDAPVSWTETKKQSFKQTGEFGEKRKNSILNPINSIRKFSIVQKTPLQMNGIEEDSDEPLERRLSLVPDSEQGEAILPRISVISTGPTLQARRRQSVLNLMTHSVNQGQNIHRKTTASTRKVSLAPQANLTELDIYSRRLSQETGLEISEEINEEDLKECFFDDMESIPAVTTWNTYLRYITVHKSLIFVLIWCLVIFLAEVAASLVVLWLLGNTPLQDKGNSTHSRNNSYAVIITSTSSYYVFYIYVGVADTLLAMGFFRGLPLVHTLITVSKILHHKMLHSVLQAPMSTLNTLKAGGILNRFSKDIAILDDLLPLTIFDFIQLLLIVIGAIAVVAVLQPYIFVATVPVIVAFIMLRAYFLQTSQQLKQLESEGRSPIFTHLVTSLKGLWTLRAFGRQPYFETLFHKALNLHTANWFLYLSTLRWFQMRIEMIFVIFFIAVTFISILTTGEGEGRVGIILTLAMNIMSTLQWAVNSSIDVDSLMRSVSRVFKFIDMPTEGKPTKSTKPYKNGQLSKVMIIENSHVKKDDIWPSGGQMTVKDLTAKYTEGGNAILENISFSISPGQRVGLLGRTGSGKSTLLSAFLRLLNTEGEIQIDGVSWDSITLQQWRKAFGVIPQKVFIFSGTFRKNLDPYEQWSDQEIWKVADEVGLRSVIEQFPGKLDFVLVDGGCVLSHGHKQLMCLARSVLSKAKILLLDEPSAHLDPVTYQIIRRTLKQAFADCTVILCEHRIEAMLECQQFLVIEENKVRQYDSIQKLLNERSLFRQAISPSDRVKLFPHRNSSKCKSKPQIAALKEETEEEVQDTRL

| Structure (SMILES) | EC50 | Emax |
| --- | --- | --- |
| CC(C)(C)[C@H](NC(=O)c1ccc2ccccc2c1OCC1(C(F)(F)F)CC1)C(=O)O [Example 268, (2S)-3,3-dimethyl-2-[[1-[[1-(trifluoromethyl)cyclopropyl]methoxy]naphthalene-2-carbonyl]amino]butanoic Acid] | 15.4 µM | 74% |
| CC(C)(C)[C@H](NC(=O)c1ccc2ccccc2c1OCc1ccc2c(c1)OCO2)C(=O)O [Example 79, (S)-2-(1-(benzo[d][1,3]dioxol-5-ylmethoxy)-2-naphthamido)-3,3-dimethylbutanoic Acid] | 2.5 µM | 9.1% |
| C[C@@H](OCc1ccccc1)C(NC(=O)c1ccc2ccccc2c1OCC1CCC(CO)CC1)C(=O)O (stereo partly drawn) [Example 146, (3R)-3-(benzyloxy)-2-(1-((4-(hydroxymethyl)cyclohexyl)methoxy)-2-naphthamido)butanoic Acid] | 17.4 µM | 62.2% |
| CC(C)(SC1CCCC1)[C@H](NC(=O)c1ccc2ccccc2c1OCc1ccc(S(C)(=O)=O)cc1)C(=O)O [Example 171] |  | 16.4% |
| CC(C)C#CCOc1c(C(=O)N[C@H](C(=O)O)C(C)(C)C)ccc2ccccc12 [Example 235, (2S)-3,3-dimethyl-2-[[1-(4-methylpent-2-ynoxy)naphthalene-2-carbonyl]amino]butanoic Acid] | 15.2 µM | 211% |
| CC(C)(C)C#CCOc1c(C(=O)N[C@H](C(=O)O)C(C)(C)C)ccc2ccccc12 [Example 267, (2S)-2-[[1-(4,4-dimethylpent-2-ynoxy)naphthalene-2-carbonyl]amino]-3,3-dimethyl-butanoic Acid] | 3.4 µM | 288% |
| C[C@@H](OCc1ccccc1)C(NC(=O)c1ccc2ccccc2c1OCC1CC2CCC1C2)C(=O)O (stereo partly drawn) [Example 147, (3R)-3-(benzyloxy)-2-(1-(bicyclo[2.2.1]heptan-2-ylmethoxy)-2-naphthamido)butanoic Acid] | 16.8 µM | 68.9% |
| CC1(C(NC(=O)c2ccc3cc(F)ccc3c2OCC2CCC(F)(F)CC2)C(=O)O)CCCCC1 (stereo not shown) [Example 54, 2-(1-((4,4-difluorocyclohexyl)methoxy)-6-fluoro-2-naphthamido)-2-(1-methylcyclohexyl)acetic Acid] | 2.4 µM | 56.1% |
| CC(C)(C)[C@H](NC(=O)c1ccc2ccccc2c1OCc1ccc(OC(F)(F)F)cc1)C(=O)O [Example 65, (S)-3,3-dimethyl-2-(1-((4-(trifluoromethoxy)benzyl)oxy)-2-naphthamido)butanoic Acid] | 4.4 µM | 8.7% |
| CC(C)(C)OC(=O)C[C@H](NC(=O)c1ccc2ccccc2c1OCc1ccc(C(F)(F)F)cc1)C(=O)O (stereo in doubt) [Example 151, 4-(tert-butoxy)-4-oxo-2-(1-((4-(trifluoromethyl)benzyl)oxy)-2-naphthamido)butanoic Acid] | 13.4 µM | 68.7% |
| Cc1cc(F)c2ccc(C(=O)N[C@H](C(=O)O)C(C)(C)C)c(OCc3ccc(OC(F)(F)F)cc3)c2c1 [Example 271, (2S)-2-[[5-fluoro-7-methyl-1-[[4-(trifluoromethoxy)phenyl]methoxy]naphthalene-2-carbonyl]amino]-3,3-dimethyl-butanoic Acid] | 0.2 µM | 261% |
| CC(C)C#CCOc1c(C(=O)N[C@H](C(=O)O)C(C)(C)C)ccc2cc(F)ccc12 [Example 224, (2S)-2-[[6-fluoro-1-(4-methylpent-2-ynoxy)naphthalene-2-carbonyl]amino]-3,3-dimethyl-butanoic Acid] | 12.8 µM | 119% |
| Cc1ccc2ccc(C(=O)N[C@@H](C(=O)O)C(C)(C)C)c(OCc3ccc(OC(F)(F)F)cc3)c2c1 [Example 289, (R)-3,3-dimethyl-2-(7-methyl-1-((4-(trifluoromethoxy)benzyl)oxy)-2-naphthamido)butanoic Acid] | 1.5 µM | 109% |
| O=C(N[C@H](C(=O)O)C12CC(C(F)(F)F)(C1)C2)c1ccc2cc(F)ccc2c1OCc1ccc(C(F)(F)F)cc1 [Example 15, (S)-2-(6-fluoro-1-((4-(trifluoromethyl)benzyl)oxy)-2-naphthamido)-2-(3-(trifluoromethyl)bicyclo[1.1.1]pentan-1-yl)acetic Acid] | 1.7 µM | 48.4% |
| CCC(C)(C)[C@H](NC(=O)c1ccc2cc(F)ccc2c1OCC1CCC(F)(F)CC1)C(=O)O [Example 34, (S)-2-(1-((4,4-difluorocyclohexyl)methoxy)-6-fluoro-2-naphthamido)-3,3-dimethylpentanoic Acid] | 3.8 µM | 78.4% |

Other lines, results leading:

| EC50 | Emax | Structure (SMILES) |
| --- | --- | --- |
| 10.9 µM | 63.4% | N#Cc1ccc(C[C@H](NC(=O)c2ccc3ccccc3c2OCc2ccc(C(F)(F)F)cc2)C(=O)O)cc1 [Example 107, (S)-3-(4-cyanophenyl)-2-(1-((4-(trifluoromethyl)benzyl)oxy)-2-naphthamido)propanoic Acid] |
| 2.1 µM | 103% | O=C(N[C@@H](Cc1ccccc1)C(=O)O)c1ccc2ccccc2c1OCc1ccc(C(F)(F)F)cc1 [Example 87, (1-((4-(trifluoromethyl)benzyl)oxy)-2-naphthoyl)-L-phenylalanine] |
| 4.7 µM | 93.5% | CO[C@@H](C)[C@H](NC(=O)c1ccc2ccccc2c1OCc1ccc(C(F)(F)F)cc1)C(=O)O [Example 135, O-methyl-N-(1-((4-(trifluoromethyl)benzyl)oxy)-2-naphthoyl)-L-allothreonine] |
| 8 µM | 33.7% | O=C(N[C@@H](Cc1ccccc1)C(=O)O)c1ccc2ccccc2c1OCc1cccc2c1OC(F)(F)O2 [Example 102, (1-((2,2-difluorobenzo[d][1,3]dioxol-4-yl)methoxy)-2-naphthoyl)-L-phenylalanine] |
|  | 10.6% | CC(OCc1ccccc1)[C@H](NC(=O)c1ccc2cc(F)ccc2c1OCc1ccc(OC(F)(F)F)cc1)C(=O)O (stereo in doubt) [Example 192, O-benzyl-N-(6-fluoro-1-((4-(trifluoromethoxy)benzyl)oxy)-2-naphthoyl)-L-allothreonine] |
| 13.1 µM | 87.2% | O=C(N[C@@H](Cc1ccc(C(F)(F)F)cc1)C(=O)O)c1ccc2ccccc2c1OCc1nc2ccccc2s1 [Example 213, (S)-2-(1-(benzo[d]thiazol-2-ylmethoxy)-2-naphthamido)-3-(4-(trifluoromethyl)phenyl)propanoic Acid] |
| 20.5 µM | 65.4% | O=C(N[C@@H](Cc1ccc(C(F)(F)F)cc1)C(=O)O)c1ccc2ccccc2c1OCC1CCCCC1 [Example 200, (S)-2-(1-(cyclohexylmethoxy)-2-naphthamido)-3-(4-(trifluoromethyl)phenyl)propanoic Acid] |
|  | 4.7% | CC(C)(C)C[C@H](NC(=O)c1ccc2ccccc2c1OCc1ccc(OC(F)F)cc1)C(=O)O [Example 108, (S)-2-(1-((4-(difluoromethoxy)benzyl)oxy)-2-naphthamido)-4,4-dimethylpentanoic Acid] |
| 0.3 µM | 24.5% | O=C(N[C@@H](Cc1ccccc1)C(=O)O)c1ccc2ccccc2c1OCc1ccc(Br)cc1 [Example 122, (1-((4-bromobenzyl)oxy)-2-naphthoyl)-L-phenylalanine] |
|  | 13% | CC(C)(C)C[C@H](NC(=O)c1ccc2ccccc2c1OCc1ccc(S(C)(=O)=O)cc1)C(=O)O [Example 158, (S)-4,4-dimethyl-2-(1-((4-(methylsulfonyl)benzyl)oxy)-2-naphthamido)pentanoic Acid] |

Source: patent US12630498B2 (Genzyme Corporation, priority 2019, dated 2026)
